According to patent publication US10239873B2, “7-azaindole or 4,7-diazaindole derivatives as IKKϵ epsilon and TBK1 inhibitor and pharmaceutical composition comprising same” (GREEN CROSS CORPORATION, priority 2015, dated 2019):

Biological target: T1, TBK1 (Homo sapiens, UniProt Q9UHD2)
T1 construct: purchased Promega (Invitrogen is also named in the same bracket) V4158; PR8031B; V3991 (not assigned to the two kinases)
T1 sequence (Q9UHD2 1-729): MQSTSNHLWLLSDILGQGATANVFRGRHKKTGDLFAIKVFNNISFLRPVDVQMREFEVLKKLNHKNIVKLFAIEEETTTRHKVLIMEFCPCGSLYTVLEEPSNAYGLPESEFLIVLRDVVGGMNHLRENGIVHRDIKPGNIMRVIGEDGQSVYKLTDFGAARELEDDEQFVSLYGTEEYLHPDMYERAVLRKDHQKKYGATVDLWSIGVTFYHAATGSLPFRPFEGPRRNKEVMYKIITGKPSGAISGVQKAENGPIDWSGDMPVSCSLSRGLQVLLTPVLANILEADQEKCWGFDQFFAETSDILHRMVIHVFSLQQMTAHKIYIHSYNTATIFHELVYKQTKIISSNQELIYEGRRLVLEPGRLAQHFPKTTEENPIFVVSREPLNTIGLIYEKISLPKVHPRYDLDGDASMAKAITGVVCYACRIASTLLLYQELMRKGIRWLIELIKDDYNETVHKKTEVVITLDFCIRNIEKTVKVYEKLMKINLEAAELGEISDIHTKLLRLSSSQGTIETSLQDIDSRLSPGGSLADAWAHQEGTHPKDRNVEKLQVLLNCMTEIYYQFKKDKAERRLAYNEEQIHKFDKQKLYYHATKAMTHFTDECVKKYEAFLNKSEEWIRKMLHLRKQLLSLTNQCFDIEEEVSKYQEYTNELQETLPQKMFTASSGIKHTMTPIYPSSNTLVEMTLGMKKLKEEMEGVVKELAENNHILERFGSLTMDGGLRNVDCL
Experiment: ADP-Glo Kinase Assay, inhibition activity on TBK1
Type: biochemical
Description: Inhibition activities on IKKϵ and TBK1 were evaluated using the compounds of Examples 1 to 250.
The inhibition activities on IKKϵ and TBK1 were measured by a luminometer, IKKϵ/TBK1 Kinase Enzyme System (Promega, Ca# V4158; Invitrogen, PR8031B, Promega, Ca# V3991) and ADP-Glo Kinase Assay using ADP-Glo™ Kinase Analysis Kit (Promega, Ca# V9101) and a kinase reaction buffer [40 mM Tris(pH 7.5), 20 mM MgCl2, 0.1 mg/mL BSA] in accordance with the manufacturer's protocol.

| Compound | IC50 |
| --- | --- |
| CC(C)(C)OC(=O)N1CC=C(c2c[nH]c3ncc(-c4ccc(C#N)cc4)cc23)CC1 [Example 168, tert-Butyl 4-(5-(4-cyanophenyl)-1H-pyrrolo[2,3-b]pyridin-3-yl)-5,6-dihydropyridine-1(2H)-carboxylate] | 1300 nM |
| CC(C)(C)OC(=O)N1CC=C(c2c[nH]c3ncc(-c4cccc(S(C)(=O)=O)c4)cc23)CC1 [Example 162, tert-Butyl 4-(5-(3-(methylsulfonyl)phenyl)-1H-pyrrolo[2,3-b]pyridin-3-yl)-5,6-dihydropyridine-1(2H)-carboxylate] | 78 nM |
| O=C(NC1CCCC1)N1CC=C(c2c[nH]c3ncc(-c4ccc(CN5CCOCC5)s4)nc23)CC1 [Example 229, N-cyclopentyl-4-(2-(5-(morpholinomethyl)thiophen-2-yl)-5H-pyrrolo[2,3-b]pyrazin-7-yl)-5,6-dihydropyridine-1(2H)-carboxamide] | 66 nM |
| Nc1nc2[nH]cc(C3=CCN(C(=O)NC4CCCC4)CC3)c2cc1-c1ccc(CN2CCOCC2)s1 [Example 227, 4-(6-amino-5-(5-(morpholinomethyl)thiophen-2-yl)-1H-pyrrolo[2,3-b]pyridin-3-yl)-N-cyclopentyl-5,6-dihydropyridine-1(2H)-carboxamide] | 1500 nM |
| O=C(NC1CCCC1)N1CC=C(c2c[nH]c3ncc(-c4cc(Cl)cc(C(=O)N5CCOCC5)c4)cc23)CC1 [Example 77, 4-(5-(3-Chloro-5-(morpholine-4-carbonyl)phenyl)-1H-pyrrolo[2,3-b]pyridin-3-yl)-N-cyclopentyl-3,6-dihydropyridine-1(2H)-carboxamide 2,2,2-trifluoroacetate] | 250 nM |
| O=C(Cc1ccc(-c2c[nH]c3ncc(-c4ccc(CN5CCOCC5)s4)cc23)cc1)NC1CCCC1 [Example 248, N-cyclopentyl-2-(4-(5-(5-(morpholinomethyl)thiophen-2-yl)-1H-pyrrolo[2,3-b]pyridin-3-yl)phenyl)acetamide 2,2,2-trifluoroacetate] | 2100 nM |
| COc1ccc(-c2cnc3[nH]cc(C4=C(C)CN(C(=O)NC5CCCC5)CC4)c3c2)cc1OC [Example 129, N-cyclopentyl-4-(5-(3,4-dimethoxyphenyl)-1H-pyrrolo[2,3-b]pyridin-3-yl)-3-methyl-5,6-dihydropyridine-1(2H)-carboxamide] | 240 nM |
| COc1ccc(-c2cnc3[nH]cc(C4=CCN(C(=O)OC(C)(C)C)CC4)c3n2)cc1OC [Example 230, tert-butyl 4-(2-(3,4-dimethoxyphenyl)-5H-pyrrolo[2,3-b]pyrazin-7-yl)-5,6-dihydropyridine-1(2H)-carboxylate] | 320 nM |
| COc1ccc(-c2cnc3[nH]cc(C4=CCCN(C(=O)OC(C)(C)C)CC4)c3c2)cc1OC [Example 187, tert-Butyl 4-(5-(3,4-dimethoxyphenyl)-1H-pyrrolo[2,3-b]pyridin-3-yl)-2,3,6,7-tetrahydro-1H-azepine-1-carboxylate] | 3300 nM |
| CC(=O)Nc1ccc(-c2cnc3[nH]cc(C4=CCN(C(=O)OC(C)(C)C)CC4)c3c2)cc1 [Example 241, tert-butyl 4-(5-(4-acetamidophenyl)-1H-pyrrolo[2,3-b]pyridin-3-yl)-5,6-dihydropyridine-1(2H)-carboxylate] | 170 nM |
| CC(=O)Nc1cccc(-c2cnc3[nH]cc(C4=CCN(C(=O)OC(C)(C)C)CC4)c3c2)c1 [Example 240, tert-butyl 4-(5-(3-acetamidophenyl)-1H-pyrrolo[2,3-b]pyridin-3-yl)-5,6-dihydropyridine-1(2H)-carboxylate] | 200 nM |
| CC(C)(C)OC(=O)N1CC=C(c2c[nH]c3ncc(-c4cccc(CN5CCOCC5)c4)cc23)CC1 [Example 156, tert-Butyl 4-(5-(3-(morpholinomethyl)phenyl)-1H-pyrrolo[2,3-b]pyridin-3-yl)-5,6-dihydropyridine-1(2H)-carboxylate] | 260 nM |
| CC1CN(C(=O)c2cccs2)CC=C1c1c[nH]c2ncc(-c3ccc(S(C)(=O)=O)cc3)cc12 (stereo not drawn) [Example 214, (5-methyl-4-(5-(4-(methylsulfonyl)phenyl)-1H-pyrrolo[2,3-b]pyridin-3-yl)-5,6-dihydropyridin-1(2H)-yl)(thiophen-2-yl)methanone] | 78 nM |
| COc1ccc(-c2cc3c(C4=CCN(C(=O)OC(C)(C)C)CC4)c[nH]c3nc2N)cc1OC [Example 224, tert-butyl 4-(6-amino-5-(3,4-dimethoxyphenyl)-1H-pyrrolo[2,3-b]pyridin-3-yl)-5,6-dihydropyridine-1(2H)-carboxylate] | > 10000 nM |
| COc1ccc(-c2cc3c(C4=CCN(C(=O)NC5CCCC5)CC4)c[nH]c3nc2N)cc1OC [Example 226, 4-(6-amino-5-(3,4-dimethoxyphenyl)-1H-pyrrolo[2,3-b]pyridin-3-yl)-N-cyclopentyl-5,6-dihydropyridine-1(2H)-carboxamide] | > 10000 nM |
| COc1ccc(-c2cnc3[nH]cc(C4=CCN(C(=O)OC(C)(C)C)CC4)c3c2)cn1 [Example 161, tert-Butyl 4-(5-(6-methoxypyridin-3-yl)-1H-pyrrolo[2,3-b]pyridin-3-yl)-5,6-dihydropyridine-1(2H)-carboxylate] | 600 nM |
| O=C(c1cccs1)N1CC=C(c2c[nH]c3ncc(-c4ccc(CN5CCOCC5)s4)cc23)CC1 [Example 206, (4-(5-(5-(morpholinomethyl)thiophen-2-yl)-1H-pyrrolo[2,3-b]pyridin-3-yl)-5,6-dihydropyridin-1(2H)-yl)(thiophen-2-yl)methanone] | 49 nM |
| CC1CN(C(=O)NC2CCCC2)CC=C1c1c[nH]c2ncc(-c3ccc(S(N)(=O)=O)cc3)cc12 (stereo not drawn) [Example 124, N-cyclopentyl-5-methyl-4-(5-(4-sulfamoylphenyl)-1H-pyrrolo[2,3-b]pyridin-3-yl)-5,6-dihydropyridine-1(2H)-carboxamide] | 51 nM |
| O=C(OC1CCCC1)N1CC=C(c2c[nH]c3ncc(-c4ccc(S(=O)(=O)N5CCOCC5)cc4)cc23)CC1 [Example 181, Cyclopentyl 4-(5-(4-(morpholinosulfonyl)phenyl)-1H-pyrrolo[2,3-b]pyridin-3-yl)-5,6-dihydropyridine-1(2H)-carboxylate] | 370 nM |
| O=C(OC1CCCC1)N1CC=C(c2c[nH]c3ncc(-c4ccc(C(=O)N5CCOCC5)cc4)cc23)CC1 [Example 183, Cyclopentyl 4-(5-(4-(morpholine-4-carbonyl)phenyl)-1H-pyrrolo[2,3-b]pyridin-3-yl)-5,6-dihydropyridine-1(2H)-carboxylate] | 39 nM |
| O=C(NC1CCCC1)N1CC=C(c2c[nH]c3ncc(-c4ccc(OCCCN5CCOCC5)cc4)cc23)CC1 [Example 70, N-cyclopentyl-4-(5-(4-(3-morpholinopropoxy)phenyl)-1H-pyrrolo[2,3-b]pyridin-3-yl)-5,6-dihydropyridine-1(2H)-carboxamide] | 400 nM |
| COc1ccc(-c2cnc3[nH]cc(C4=CCN(C(=O)N(C)C5CCCC5)CC4)c3c2)cc1OC [Example 220, N-cyclopentyl-4-(5-(3,4-dimethoxyphenyl)-1H-pyrrolo[2,3-b]pyridin-3-yl)-N-methyl-5,6-dihydropyridine-1(2H)-carboxamide] | 1300 nM |
| CS(=O)(=O)c1ccc(-c2cnc3[nH]cc(C4=C(F)CN(C(=O)NC5CCCC5)CC4)c3c2)cc1 [Example 132, N-cyclopentyl-3-fluoro-4-(5-(4-(methylsulfonyl)phenyl)-1H-pyrrolo[2,3-b]pyridin-3-yl)-5,6-dihydropyridine-1(2H)-carboxamide] | 250 nM |
| CCS(=O)(=O)c1ccc(-c2cnc3[nH]cc(C4=CCN(C(=O)NC5CCCC5)CC4)c3c2)cc1 [Example 53, N-cyclopentyl-4-(5-(4-(ethylsulfonyl)phenyl)-1H-pyrrolo[2,3-b]pyridin-3-yl)-3,6-dihydropyridine-1(2H)-carboxamide] | 66 nM |
| CCCOc1cccc(-c2cnc3[nH]cc(C4=CCN(C(=O)OC(C)(C)C)CC4)c3c2)c1 [Example 242, tert-butyl 4-(5-(3-propoxyphenyl)-1H-pyrrolo[2,3-b]pyridin-3-yl)-5,6-dihydropyridine-1(2H)-carboxylate] | 1300 nM |
| COc1ccc(-c2cnc3[nH]cc(C4=CCN(C(=O)OC5CCCC5)CC4)c3c2)cc1F [Example 171, Cyclopentyl 4-(5-(3-fluoro-4-methoxyphenyl)-1H-pyrrolo[2,3-b]pyridin-3-yl)-5,6-dihydropyridine-1(2H)-carboxylate] | 880 nM |
| NS(=O)(=O)c1ccc(-c2cnc3[nH]cc(C4=CCN(C(=O)c5cccs5)CC4)c3c2)cc1 [Example 197, 4-(3-(1-(thiophene-2-carbonyl)-1,2,3,6-tetrahydropyridin-4-yl)-1H-pyrrolo[2,3-b]pyridin-5-yl)benzensulfonamide] | 28 nM |
